For 73 compounds, Kd results are on record in PubChem BioAssay AID608 (Sanford-Burnham Center for Chemical Genomics, 2007).

“And” between values parts separate entries of the source, which are not always exact repeats. Equal entries are not always repeated. The source made the active and inactive calls. No rule for the calls is given here.

As a reminder, the Kd is the concentration at which binding is half-saturated.

The target of this assay is Peptidyl-prolyl cis-trans isomerase FKBP1A (Homo sapiens) (UniProt P62942). The assay is described as follows: FKBP12 binders, biophysical, NMR detection (AID 608). The note with it: NMR binding, purified FKBP12.
Sequence of Peptidyl-prolyl cis-trans isomerase FKBP1A (Homo sapiens) (P62942 whole entry, looked up): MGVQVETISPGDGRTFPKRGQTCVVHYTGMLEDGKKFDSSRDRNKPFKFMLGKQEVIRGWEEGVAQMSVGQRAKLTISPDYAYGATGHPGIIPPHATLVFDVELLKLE
For the compound `COc1ccc2c(c1O)-c1c(OC)c(OC)cc3c1[C@H](C2)N(C)CC3`, the Kd was > 4 mM (inactive). Take `C=CC(C1=CC(=O)C(OC)=CC1=O)c1ccc(O)cc1` (stereo not drawn): the Kd was > 4 mM (inactive). For `O=C1C2C3C=CC(C3)C2C(=O)N1c1cccnc1` (stereo not drawn), the Kd was > 4 mM (inactive). With `O=S(=O)(CCN1CCCC1)c1ccccc1`, the Kd was > 4 mM (inactive). Next, `CC(=O)NC(NC(C)=O)c1ccccc1`: > 4 mM (inactive).

Turning to `OC12CC3CC(C1)C1(NCCS1)C(C3)C2` (stereo not drawn), the Kd is > 4 mM (inactive).

`CCOC(=O)c1cc(C)[nH]n1`: the Kd is > 4 mM (inactive). On to `c1cnc(N2CCNCC2)nc1`, for which the Kd was > 4 mM (inactive). Regarding `CCOC(=O)Cc1nc2ccccc2[nH]1`, the Kd was > 4 mM (inactive). Regarding `Cc1nc2ccc(NC(=O)N3CCSCC3)cc2s1`, the Kd was > 4 mM (inactive). Regarding `O=C(COc1ccccc1)N1CCOCC1`, the Kd entry is “inactive”. Then `CCc1ccc(C(=O)N2CCCC2)s1`, with > 4 mM (inactive); and `O=C1O[C@H](C(O)CO)C(O)=C1O` (stereo partly drawn), with > 4 mM (inactive); and `CC(=O)Nc1nc2c(s1)C(=O)NCCC2`, with > 4 mM (inactive). For the compound `COc1ccc(-c2coc3cc(O)ccc3c2=O)cc1`, the Kd is > 4 mM (inactive). In the case of `CSc1nc2cc(F)c(F)cc2n1C`, the Kd is > 4 mM (inactive). Next, `O=C(O)CCCCC1SCC2NC(=O)NC21` (stereo not drawn): > 4 mM (inactive). As for `S=c1nc(Cc2ccccc2)[nH][nH]1`, the Kd was > 4 mM (inactive). As to `Cc1nc2sc3c(c2c(=N)n1N)CC(C)(C)OC3`, the Kd is > 4 mM (inactive).

With `O=C1CC(=O)N(c2ccccc2)C(=O)N1`, the Kd was > 4 mM (inactive).

In the case of `c1ccc2c(c1)CN1CCCC1=N2`, the Kd is > 4 mM (inactive). On to `O=C(CSc1nnc2ccccn12)N1CCOCC1`, for which the Kd is 0.221 mM. In the case of `CC(=O)N1CCN(C2CCSC2)CC1` (stereo not drawn), the Kd is > 4 mM (inactive).

`COc1ccc2c(c1)OCC(Cc1ccc(OC)c(OC(C)=O)c1)C2=O` (stereo not drawn): the Kd is > 4 mM (inactive).

For `CC(=O)c1ccc(Cc2cnc(N)s2)cc1`, the Kd was > 4 mM (inactive).

For `OCCNc1nc2ccc(Cl)cc2[nH]1`, the Kd was > 4 mM (inactive). Consider `CS(=O)(=O)Nc1ccccc1C(=O)c1ccccc1`, for which the Kd is > 4 mM (inactive). As to `c1ccc2[nH]c(-c3cscn3)nc2c1`, the Kd is 0.111 mM and 0.056 mM. In the case of `CCc1noc(C)c1C(=O)Nc1ncc(C)s1`, the Kd is > 4 mM (inactive). As for `C=C(C)C1Cc2c(ccc(C(=O)O)c2O)O1` (stereo not drawn), the Kd is > 4 mM (inactive). In the case of `NC(=O)Cc1nc(-c2ccccc2)cs1`, the Kd is > 4 mM (inactive). Regarding `OC1CC(c2ccccc2)NC2(CCCC2)C1` (stereo not drawn), the Kd was > 4 mM (inactive).

`NC(CSCSCC(N)C(=O)O)C(=O)O` (stereo not drawn): the Kd was > 4 mM (inactive). On to `CC(=O)O[C@H]1CC[C@@]2(C)C(CC[C@]3(C)C2C(=O)C=C2C4[C@@H](C)[C@H](C)CC[C@]4(C(=O)O)CC[C@]23C)C1(C)C` (stereo partly drawn), for which the Kd is > 4 mM (inactive). Then `OC[C@H]1O[C@@H](O[C@H]2[C@H](O)[C@@H](O)[C@@H](O)O[C@@H]2CO)[C@H](O)[C@@H](O)[C@@H]1O`, with > 4 mM (inactive); and `CC(C)(O)[C@@H]1Cc2cc3ccc(=O)oc3cc2O1`, with > 4 mM (inactive); and `COC(=O)c1ccc(Cl)c(NC(C)=O)c1`, with > 4 mM (inactive). Then `O=C(Nc1cnccn1)c1ccncc1`, with > 4 mM (inactive); and `CC(=O)N1CCN(c2ccc(O)cc2)CC1`, with > 4 mM (inactive).

For `CCc1ccc2oc(-c3cc(N)cc(C)c3O)nc2c1`, the Kd was > 4 mM (inactive). For the compound `C/C=C(\C)c1nnc(NC(=O)c2ccco2)s1`, the Kd is > 4 mM (inactive). For `COc1cccc(/C=N/N=C2/NC(=O)CS2)c1`, the Kd is > 4 mM (inactive). In the case of `O=S(=O)(Cc1ccc(Cl)cc1)N1CCCC1`, the Kd is > 4 mM (inactive).

In the case of `O=c1[nH]oc2ccccc12`, the Kd is > 4 mM (inactive). Then `CNC(=O)c1c(O)c2ccccc2[nH]c1=O`, with > 4 mM (inactive); and `COc1cc(/C=C/C(=O)O)cc(OC)c1OC`, with > 4 mM (inactive); and `Nc1nnc(SCc2ccc(F)cc2)s1`, with > 4 mM (inactive). Consider `CC1CCC2(OC1)OC1CC3C4CCC5C[C@@H](O)CCC5(C)C4=CCC3(C)C1[C@@H]2C` (stereo partly drawn), for which the Kd is > 4 mM (inactive). Regarding `CNC(=O)C1CC(=O)N(c2ccc(O)cc2)C1` (stereo not drawn), the Kd was > 4 mM (inactive). Regarding `O=C1C(=O)N(CNc2ncccn2)c2ccccc21`, the Kd is > 4 mM (inactive). In the case of `CCC(=O)OC1[C@@H]2CC3=C4CC(=O)O[C@@H](c5ccoc5)[C@]4(C)CCC3C(C)(C2=O)[C@@H](CC(=O)OC)C1(C)C` (stereo partly drawn), the Kd was > 4 mM (inactive). Regarding `CC1CN(Cc2ccccn2)CCC1=O` (stereo not drawn), the Kd is > 4 mM (inactive).

Take `Cc1cc(C(=O)Nc2cccnc2)cs1`: the Kd is > 4 mM (inactive). For the compound `NN1C(=O)/C(=C/c2ccc(O)c(O)c2)SC1=S`, the Kd is > 4 mM (inactive). Consider `O=C(O)CCC1NCC2CC1CN1CCCCC21` (stereo not drawn), for which the Kd was > 4 mM (inactive). In the case of `Cn1cnnc1SCC(=O)Nc1nccs1`, the Kd is > 4 mM (inactive). Then `Cn1c(SCC(N)=O)nnc1-c1c[nH]c2ccccc12`, with > 4 mM (inactive). Take `C=C1C([C@]2(C)C(CC(=O)OC)[C@@](C)(COC(C)=O)OC(=O)C[C@@H]2OC(C)=O)[C@@H](OC=O)[C@H](OC(=O)C(O)C(C)CC)[C@@]2(C)[C@H](c3ccoc3)CC(=O)C12O` (stereo partly drawn): the Kd was > 4 mM (inactive).

Turning to `NC(=O)CSc1nnc2ccc(-c3ccco3)nn12`, the Kd is > 4 mM (inactive). Then `Cc1c(C(=O)Nc2ccccc2)sc(N)c1C(N)=O`, with > 4 mM (inactive); and `CN1CCC(NC(=O)c2cccnc2)CC1`, with > 4 mM (inactive); and `COC(=O)C[C@H]1C(C)(C)C(=O)[C@@H]2CC3C4=CC(=O)O[C@@H](c5ccoc5)[C@]4(C)CCC3C1(C)C2=O` (stereo partly drawn), with > 4 mM (inactive). Consider `CC(=O)NC(=S)Nc1ccc(N(C)C(C)=O)cc1`, for which the Kd is > 4 mM (inactive). For `c1cncc(Nc2nc(-c3cccnc3)cs2)c1`, the Kd was > 4 mM (inactive). In the case of `O=C1COc2cc(O)ccc21`, the Kd was > 4 mM (inactive). As to `O=S1(=O)C=CC(Nc2ccccc2)C1` (stereo not drawn), the Kd is > 4 mM (inactive). Regarding `Cc1cc(C(=O)NCc2cccs2)c(C)o1`, the Kd is > 4 mM (inactive). `Nc1ccc2ncsc2c1`: the Kd is > 4 mM (inactive). As for `COc1cc(C(=O)NCC2CCCO2)cc(OC)c1OC` (stereo not drawn), the Kd was > 4 mM (inactive). `O=C(NCc1ccccc1Br)c1ccco1`: the Kd is > 4 mM (inactive). For the compound `CCCCCCCCCCCCCCCCCCOCC(O)CO` (stereo not drawn), the Kd was > 4 mM (inactive).

As for `N#CC(O[C@@H]1O[C@H](CO[C@@H]2O[C@H](CO)[C@@H](O)[C@H](O)[C@H]2O)[C@@H](O)[C@H](O)[C@H]1O)c1ccccc1` (stereo partly drawn), the Kd was > 4 mM (inactive). In the case of `CC1(C)CC2C1CCC1(C)OC1CCC2(C)O` (stereo not drawn), the Kd was > 4 mM (inactive).
